Where two headings read alike, the source gives them in different places.
Assays:
[1] = Oral ingestion of α-TS, plasma levels; format: in vivo; details: 800 IU/day, humans
From the text: Also, the oxidative DNA damage produced by oxidized vitamin C could be ameliorated by vitamin E. The form and type of vitamin E used are also important in any clinical trial. […] Selenium is a co-factor of glutathione perodidase, and Se-glutathione peroxidase also acts as an antioxidant. Therefore, selenium supplementation together with other antioxidants is also essential.

adenylate cyclase = details: cited from earlier work
[2] = system: smokers with hypercholesterolemia; details: 544 IU, 42 patients, 4 months; cited from earlier work
[3] = oral supplementation, human subjects; cited from earlier work
[4] = system: patients undergoing angioplasty; details: 317 patients, 4 weeks before and 6 months after angioplasty, vs placebo, cited from earlier work
[5] = system: diabetes type 2 patients with or without macrovascular complications; details: 1200 IU/day, 75 patients, 5 months; cited from earlier work
[6] = system: patients with chronic renal failure; details: 800 IU, 33 patients, 12 weeks, cited from earlier work
[7] = system: patients with angiographically proven coronary atherosclerosis; details: cited from earlier work
connexin gene = details: mammalian cells in culture; cited from earlier work
[8] = cited from earlier work
[9] = system: intracellular levels of glutathione; details: cited from earlier work
[10] = system: patients with idiopathic dilated cardiomyopathy; details: Co-enzyme Q10 33.3 mg thrice/day, 126 patients, 6 y; cited from earlier work
[11] = system: healthy male subjects receiving methionine; details: Vit. C 2 g, methionine 100 mg/kg, 6 hours; cited from earlier work
[12] = system: 39,910 male health professionals; details: at least 100 IU per day for at least 2 years vs no vitamin E; cited from earlier work
[13] = system: men (high risk patients with prior cardiac events); details: 50 mg/day, 1862 men, 6 y, vs placebo, cited from earlier work
heavy smokers = details: 800 IU daily, 10 heavy smokers, 3 weeks, cited from earlier work
rabbits = details: cited from earlier work
male monkeys = details: vs unsupplemented atherosclerotic-promoting diet; cited from earlier work
[14] = system: patients with high risk for cardiac events; details: Vitamin E 400 IU, 9,541 patients, follow-up 4.5 y, vs control, cited from earlier work
chickens = details: cited from earlier work
[15] = system: 11,000 people of age 67 or over; details: follow up 6 years; cited from earlier work
[16] = system: patients having coronary angioplasty; details: cited from earlier work
[17] = 400 or 800 IU per day, median follow-up 510 days

Compound: Cc1c(C)c2c(c(C)c1OC(=O)CCC(=O)O)CC[C@@](C)(CCC[C@H](C)CCC[C@H](C)CCCC(C)C)O2 [α-TS, α-tocopherol-succinate]
- plasma levels of α-tocopherol and α-TS [1]: increased
- action of PGE2 on adenylate cyclase (adenylate cyclase): reduce

Compound: CC(=O)Oc1c(C)c(C)c2c(c1C)CCC(C)(CCC[C@H](C)CCC[C@H](C)CCCC(C)C)O2 (stereo partly drawn) [Vitamin E(α-TA), alpha tocopheryl acetate]
- FMD (endothelial-dependent flow-mediated dilation) [2]: improved

Compound: N[C@@H](CCC(=O)N[C@@H](CS)C(=O)NCC(=O)O)C(=O)O [glutathione]
- plasma levels of glutathione [3]: failed to significantly increase

Compound: CC(C)(Sc1cc(C(C)(C)C)c(O)c(C(C)(C)C)c1)Sc1cc(C(C)(C)C)c(O)c(C(C)(C)C)c1 [Probucol]
- Restenosis [4]: probucol reduced
- Restenosis ([4]; listed as probucol): effective in reducing

Compound: Cc1c(C)c2c(c(C)c1O)CC[C@@](C)(CCC[C@H](C)CCC[C@H](C)CCCC(C)C)O2 [Vitamin E (d-αT), d-alpha tocopherol]
- C-reactive protein (and monocyte interleukin-6) [5]: lowered
- LDL oxidation ([6]; listed as Vit. E (d-αT)): reduced
- LDL oxidation ([6]; listed as α-tocopherol): decreased
- Death, non-fatal MI ([7]; 400 or 800 IU, 2,002 patients, follow-up 510 d): reduced

Compound: CC1=C(/C=C/C(C)=C/C=C/C(C)=C/C=C/C=C(C)/C=C/C=C(C)/C=C/C2=C(C)CCCC2(C)C)C(C)(C)CCC1 [BC, β-carotene]
- expression of the connexin gene (connexin gene): enhances
- doses that can cause yellowing of skin and pigment deposits in the eye ([8]; reversible upon discontinuation): ≥ 100 mg/day

Compound: vitamin A
- expression of the connexin gene (connexin gene): does not produce such an effect
- toxicity after prolonged consumption in adults ([8]; daily doses higher than twice the RDA): liver and skin toxicity

Compound: CC(=O)N[C@@H](CS)C(=O)O [N-acetylcysteine]
- intracellular levels of glutathione [9]: increase
- doses that can cause trace metal deficiencies ([8]; in vivo): ≥ 1000 mg/day

Compound: COC1=C(OC)C(=O)C(C/C=C(\C)CC/C=C(\C)CC/C=C(\C)CC/C=C(\C)CC/C=C(\C)CC/C=C(\C)CC/C=C(\C)CC/C=C(\C)CC/C=C(\C)CCC=C(C)C)=C(C)C1=O [Coenzyme Q10]
- Cardiac muscle function [10]: useful in improving
- doses with no known toxicity in humans ([8]; in vivo): up to 300 mg/d

Compound: O=C1O[C@H]([C@@H](O)CO)C(O)=C1O [Vit. C, ascorbic acid]
- Plasma homocysteine, arterial stiffness [11]: reduced

Compound: O=C(O)CCCCC1CCSS1 (stereo not drawn) [α-lipoic acid]
- intracellular levels of glutathione [9]: increase

Compound: Vitamin E
- lower risk of CAD [12]: 37%
- Death, CAD events [13]: no effect
- Death, CAD events ([13]; listed as vitamin E): no significant difference
- Oxidative stress (levels of oxidative stress markers) (heavy smokers): increases
- Oxidative stress (levels of oxidative stress markers) (heavy smokers; listed as vitamin E): increased
- C-reactive protein (and monocyte interleukin-6) [5]: reduced
- FMD (endothelial-dependent flow-mediated dilation) [2]: improved
- development of early aortic atherosclerotic lesions (rabbits): reduce
- stenosis progression (male monkeys): decreased
- Death, stroke, non-fatal MI [14]: no effect
- Death, stroke, non-fatal MI ([14]; listed as vitamin E): did not reduce
- development of early aortic atherosclerotic lesions (chickens): reduce
- reduction in mortality from CAD [15]: 47%
- doses used for short-term clinical studies without adverse effects ([8]; in vivo): up to 2,000 IU/d
- restenosis, % of patients ([16]; 1200 IU daily for 4 months, placebo 50%): 34.6%
- Stenosis ([16]; 1200 IU, 100 patients, 4 months): reduced
- increase in cardiovascular death [7, 17]: 18%
- lower risk of non-fatal myocardial infarction than the placebo group [7, 17]: 77%

Reference: patent US7628984B2, “Micronutrient formulations for pulmonary and heart health” (Premier Micronutrient Corporation, priority 2005, dated 2009)
